Measured values taken from ChEMBL document CHEMBL4002601, “A triple exon-skipping luciferase reporter assay identifies a new CLK inhibitor pharmacophore” (Bioorg Med Chem Lett, 2017).
The source made the active and inactive calls. The rule behind the calls is not given here.

How the values were obtained:
[1] = target: T1, Dual specificity protein kinase CLK1 (Homo sapiens, UniProt P49759); assay: Inhibition of CLK mediated SF3B1 activation in human SK-MEL-2 cells assessed as MDM2-pre mRNA exon skipping after 4 hrs by luciferase reporter gene assay relative to control; type: cell-based
Target sequence in this assay (P49759 whole entry): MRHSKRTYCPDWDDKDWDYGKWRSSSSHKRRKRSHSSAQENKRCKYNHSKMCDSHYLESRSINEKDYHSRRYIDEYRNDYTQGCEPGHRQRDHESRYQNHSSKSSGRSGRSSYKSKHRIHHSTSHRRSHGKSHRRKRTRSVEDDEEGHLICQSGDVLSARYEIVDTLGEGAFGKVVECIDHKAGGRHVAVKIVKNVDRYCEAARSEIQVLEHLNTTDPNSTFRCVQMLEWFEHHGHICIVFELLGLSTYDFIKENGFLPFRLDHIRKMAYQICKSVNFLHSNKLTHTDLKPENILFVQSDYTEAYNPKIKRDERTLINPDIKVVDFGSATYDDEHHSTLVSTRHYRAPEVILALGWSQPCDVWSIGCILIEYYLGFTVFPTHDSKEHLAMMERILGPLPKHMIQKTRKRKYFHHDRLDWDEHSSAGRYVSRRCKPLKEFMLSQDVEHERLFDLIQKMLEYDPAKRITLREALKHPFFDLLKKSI

[2] = target: T1, Dual specificity protein kinase CLK1; assay: Inhibition of CLK mediated SF3B1 activation in human Rh-18 cells assessed as MDM2-pre mRNA exon skipping at 10 uM after 8 hrs by RT-PCR method; type: cell-based
Target sequence in this assay (P49759 whole entry, looked up): as the sequence (P49759 whole entry) above

[3] = Solubility of the compound; type: physicochemical
[4] = target: T1, Dual specificity protein kinase CLK1; assay: Inhibition of human CLK1 using substrate ERMRPRKRQGSVRRRV in presence of [gamma-33P]ATP after 40 mins by scintillation counter method
Target sequence in this assay (P49759 whole entry): as above

[5] = target: T1, Dual specificity protein kinase CLK1; assay: Inhibition of CLK mediated SF3B1 activation in human SK-MEL-2 cells assessed as MDM2-pre mRNA exon skipping at 10 uM after 4 hrs by luciferase reporter gene assay relative to control; type: cell-based; set-up: Activity: scale not given: the % may be the effect or the level left
Target sequence in this assay (P49759 whole entry, looked up): as the sequence (P49759 whole entry) above

CDK6/cyclin D3 [6] = target: CDK6/cyclin D3 (Homo sapiens, UniProt Q00534); assay: (§1) Inhibition of human CDK6/cyclinD3 using Histone H1 as substrate in presence of [gamma-33P]ATP after 40 mins by scintillation counter method; type: protein-complex assay
CDK6/cyclin D3 (Homo sapiens, UniProt Q00534), sequence (P30281 whole entry): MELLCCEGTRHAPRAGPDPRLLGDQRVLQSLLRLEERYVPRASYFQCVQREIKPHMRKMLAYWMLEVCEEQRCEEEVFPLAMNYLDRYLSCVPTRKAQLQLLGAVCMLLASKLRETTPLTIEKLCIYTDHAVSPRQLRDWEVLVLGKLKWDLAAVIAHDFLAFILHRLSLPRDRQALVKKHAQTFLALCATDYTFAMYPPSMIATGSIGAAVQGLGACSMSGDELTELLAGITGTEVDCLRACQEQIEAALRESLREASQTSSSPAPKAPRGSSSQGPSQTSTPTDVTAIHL
CDK6/cyclin D3 (Homo sapiens, UniProt Q00534), sequence (Q00534 whole entry): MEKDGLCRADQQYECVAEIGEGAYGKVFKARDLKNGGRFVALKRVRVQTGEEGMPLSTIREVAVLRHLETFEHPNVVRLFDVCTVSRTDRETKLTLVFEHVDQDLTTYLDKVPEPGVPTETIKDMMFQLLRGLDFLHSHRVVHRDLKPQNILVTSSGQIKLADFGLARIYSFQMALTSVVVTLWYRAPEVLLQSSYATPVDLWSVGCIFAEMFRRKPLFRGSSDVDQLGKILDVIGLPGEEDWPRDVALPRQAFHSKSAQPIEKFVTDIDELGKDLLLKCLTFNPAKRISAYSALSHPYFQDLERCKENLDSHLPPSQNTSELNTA

[7] = target: Cyclin-dependent kinase 1/cyclin B1 (Homo sapiens, UniProt P06493); assay: Inhibition of human CDK1/cyclinB using Histone H1 as substrate in presence of [gamma-33P]ATP after 40 mins by scintillation counter method; type: protein-complex assay
Cyclin-dependent kinase 1/cyclin B1, sequence (P06493 whole entry): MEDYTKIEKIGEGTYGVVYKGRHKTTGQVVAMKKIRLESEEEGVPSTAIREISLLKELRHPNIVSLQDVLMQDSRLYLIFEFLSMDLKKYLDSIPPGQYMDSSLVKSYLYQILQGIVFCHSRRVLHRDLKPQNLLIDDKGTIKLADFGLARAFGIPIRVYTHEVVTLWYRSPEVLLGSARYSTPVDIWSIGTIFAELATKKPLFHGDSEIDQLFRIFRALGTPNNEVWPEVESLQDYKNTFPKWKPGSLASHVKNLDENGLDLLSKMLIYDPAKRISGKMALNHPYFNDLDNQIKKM
Cyclin-dependent kinase 1/cyclin B1, sequence (P14635 whole entry, further chain): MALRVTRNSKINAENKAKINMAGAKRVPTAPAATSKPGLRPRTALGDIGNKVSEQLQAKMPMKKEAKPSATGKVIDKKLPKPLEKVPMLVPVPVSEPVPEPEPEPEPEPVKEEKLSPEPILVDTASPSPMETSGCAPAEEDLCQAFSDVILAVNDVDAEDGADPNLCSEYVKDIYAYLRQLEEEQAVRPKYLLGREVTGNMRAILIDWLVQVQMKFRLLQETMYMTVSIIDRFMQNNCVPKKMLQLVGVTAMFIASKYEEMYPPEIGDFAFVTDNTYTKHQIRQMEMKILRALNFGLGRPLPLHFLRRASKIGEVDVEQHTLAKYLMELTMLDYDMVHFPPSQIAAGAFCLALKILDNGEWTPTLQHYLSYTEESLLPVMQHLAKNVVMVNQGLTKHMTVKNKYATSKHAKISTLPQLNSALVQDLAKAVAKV

CDK4/Cyclin D3 [8] = target: CDK4/Cyclin D3 (Homo sapiens, UniProt P11802); assay: (§2) Inhibition of human CDK4/cyclinD3 using Histone H1 as substrate in presence of [gamma-33P]ATP after 40 mins by scintillation counter method; type: protein-complex assay
CDK4/Cyclin D3 (Homo sapiens, UniProt P11802), sequence (P11802 whole entry): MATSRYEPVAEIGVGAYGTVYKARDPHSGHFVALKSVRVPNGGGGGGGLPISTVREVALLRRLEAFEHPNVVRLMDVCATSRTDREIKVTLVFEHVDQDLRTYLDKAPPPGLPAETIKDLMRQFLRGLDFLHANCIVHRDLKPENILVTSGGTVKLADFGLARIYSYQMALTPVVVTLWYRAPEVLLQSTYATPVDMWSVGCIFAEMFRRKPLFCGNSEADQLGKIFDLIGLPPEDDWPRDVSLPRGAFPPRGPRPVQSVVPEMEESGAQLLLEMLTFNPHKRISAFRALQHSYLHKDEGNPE
CDK4/Cyclin D3 (Homo sapiens, UniProt P11802), sequence (P30281 whole entry, further chain): as the sequence (P30281 whole entry) above

[9] = target: Dual specificity protein kinase CLK2 (Homo sapiens, UniProt P49760); assay: Inhibition of human CLK2 using YRRAAVPPSPSLSRHSSPHQS(p)EDEEE as substrate in presence of [gamma-33P]ATP after 40 mins by scintillation counter method
Dual specificity protein kinase CLK2, sequence (P49760 whole entry): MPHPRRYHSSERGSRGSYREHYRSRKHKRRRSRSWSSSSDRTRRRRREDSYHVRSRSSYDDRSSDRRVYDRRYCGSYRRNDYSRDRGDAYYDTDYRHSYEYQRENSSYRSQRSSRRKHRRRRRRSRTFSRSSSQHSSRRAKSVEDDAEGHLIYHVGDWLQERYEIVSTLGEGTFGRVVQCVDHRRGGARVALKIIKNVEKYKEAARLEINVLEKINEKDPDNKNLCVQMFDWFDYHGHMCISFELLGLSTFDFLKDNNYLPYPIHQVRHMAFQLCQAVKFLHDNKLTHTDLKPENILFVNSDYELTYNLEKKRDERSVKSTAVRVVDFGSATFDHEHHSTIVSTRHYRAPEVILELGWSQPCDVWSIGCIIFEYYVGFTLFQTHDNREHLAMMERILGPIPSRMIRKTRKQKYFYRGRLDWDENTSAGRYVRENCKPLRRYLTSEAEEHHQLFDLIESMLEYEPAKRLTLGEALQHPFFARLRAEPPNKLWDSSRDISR

[10] = target: Dual specificity protein kinase CLK4 (Homo sapiens, UniProt Q9HAZ1); assay: Inhibition of human CLK4 using YRRAAVPPSPSLSRHSSPHQS(p)EDEEE as substrate in presence of [gamma-33P]ATP after 40 mins by scintillation counter method
Dual specificity protein kinase CLK4, sequence (Q9HAZ1 whole entry): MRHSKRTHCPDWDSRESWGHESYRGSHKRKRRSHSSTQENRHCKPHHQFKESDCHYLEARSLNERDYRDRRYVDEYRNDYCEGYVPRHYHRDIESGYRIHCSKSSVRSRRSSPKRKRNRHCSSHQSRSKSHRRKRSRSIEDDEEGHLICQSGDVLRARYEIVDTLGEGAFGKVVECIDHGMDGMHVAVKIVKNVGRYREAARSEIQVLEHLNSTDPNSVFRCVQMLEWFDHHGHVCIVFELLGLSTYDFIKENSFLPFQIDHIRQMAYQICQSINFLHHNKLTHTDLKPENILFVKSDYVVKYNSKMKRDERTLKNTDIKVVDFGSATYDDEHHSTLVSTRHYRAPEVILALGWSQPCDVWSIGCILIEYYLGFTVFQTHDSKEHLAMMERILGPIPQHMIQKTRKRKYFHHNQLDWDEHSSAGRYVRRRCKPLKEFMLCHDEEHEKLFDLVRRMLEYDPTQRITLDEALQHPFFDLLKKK

[11] = target: Dual specificity protein kinase CLK3 (Homo sapiens, UniProt P49761); assay: Inhibition of human CLK3 using ERMRPRKRQGSVRRRV as substrate in presence of [gamma-33P]ATP after 40 mins by scintillation counter method
Dual specificity protein kinase CLK3, sequence (P49761 whole entry): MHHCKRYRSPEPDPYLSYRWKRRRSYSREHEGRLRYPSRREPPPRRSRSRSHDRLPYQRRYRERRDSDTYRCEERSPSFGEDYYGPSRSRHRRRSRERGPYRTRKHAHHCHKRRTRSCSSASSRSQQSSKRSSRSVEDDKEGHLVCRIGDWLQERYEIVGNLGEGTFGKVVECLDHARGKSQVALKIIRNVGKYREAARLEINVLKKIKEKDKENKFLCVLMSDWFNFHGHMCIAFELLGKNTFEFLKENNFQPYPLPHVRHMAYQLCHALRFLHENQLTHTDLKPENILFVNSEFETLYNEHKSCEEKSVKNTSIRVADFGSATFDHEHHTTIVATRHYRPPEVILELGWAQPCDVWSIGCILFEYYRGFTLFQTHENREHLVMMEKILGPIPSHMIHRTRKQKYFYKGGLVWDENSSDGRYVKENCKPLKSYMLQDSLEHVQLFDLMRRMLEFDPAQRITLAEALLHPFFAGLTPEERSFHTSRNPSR

CDK6/cyclin D3 [12] = target: CDK6/cyclin D3 (Homo sapiens, UniProt P30281+Q00534); assay: as §1; type: protein-complex assay
CDK6/cyclin D3 (Homo sapiens, UniProt P30281+Q00534), sequence (P30281 whole entry): as the sequence (P30281 whole entry) above
CDK6/cyclin D3 (Homo sapiens, UniProt P30281+Q00534), sequence (Q00534 whole entry): as the sequence (Q00534 whole entry) above

CDK4/Cyclin D3 [13] = target: CDK4/Cyclin D3 (Homo sapiens, UniProt P11802+P30281); assay: as §2; type: protein-complex assay
CDK4/Cyclin D3 (Homo sapiens, UniProt P11802+P30281), sequence (P11802 whole entry): as the sequence (P11802 whole entry) above
CDK4/Cyclin D3 (Homo sapiens, UniProt P11802+P30281), sequence (P30281 whole entry): as the sequence (P30281 whole entry) above

[14] = target: T1, Dual specificity protein kinase CLK1; assay: Inhibition of CLK mediated SF3B1 activation in human HeLa cells assessed as MDM2-pre mRNA exon skipping by luciferase reporter gene assay; type: cell-based
Target sequence in this assay (P49759 whole entry): as the sequence (P49759 whole entry) above

Compound: CC(C)[C@H](CO)Nc1nc(Nc2cc(N)cc(Cl)c2)c2ncn(C(C)C)c2n1 [AMINOPURVALANOL]
- EC50 ([1]; read-out: EC50): 12000 nM
- inhibition [2]: Active

Compound: CC(C)n1cnc2c(Nc3cc(N)cc(Cl)c3)nc(N[C@@H]3CCCNC3)nc21
- EC50 ([1]; read-out: EC50): 14000 nM

Compound: COCCNc1nc(Nc2cccc(Cl)c2)c2ncn(C(C)C)c2n1
- EC50 [1]: Not Active
- solubility [3]: Insoluble

Compound: CCn1cnc2c(Nc3cccc(Cl)c3)nc(N[C@@H]3CCCC[C@@H]3NC(C)=O)nc21 (racemic)
- IC50 [4]: > 1000 nM
- EC50 [1]: Not Active

Compound: COc1ccc2c(c1)/C(=C/c1cnc[nH]1)C(=O)N2
- Activity [5]: 53%

Compound: CC(C)n1cnc2c(Nc3cc(N)cc(Cl)c3)nc(N[C@H]3CCNC3)nc21
- EC50 ([1]; read-out: EC50): 12000 nM

Compound: CC(=O)Nc1cc(Cl)cc(Nc2nc(N[C@@H]3CCCC[C@@H]3N)nc3c2ncn3C(C)C)c1
- IC50 (CDK6/cyclin D3 [6]): > 1000 nM
- EC50 ([1]; read-out: EC50): 7300 nM
- IC50 [7]: > 1000 nM

Compound: CC(C)n1cnc2c(Nc3cc(N)cc(Cl)c3)nc(N[C@H]3CCCC[C@@H]3N)nc21
- EC50 ([1]; read-out: EC50): 23500 nM

Compound: CC(C)n1cnc2c(Nc3cc(N)cc(Cl)c3)nc(N[C@@H]3CCNC3)nc21
- EC50 ([1]; read-out: EC50): 26400 nM

Compound: CC(C)n1cnc2c(Nc3cc(N)cc(Cl)c3)nc(N[C@H]3CCCNC3)nc21
- EC50 ([1]; read-out: EC50): 12900 nM

Compound: Clc1cccc(Nc2nnc(-c3ccccc3)c3ccccc23)c1
- Activity [5]: 11%

Compound: CC(C)n1cnc2c(Nc3cccc(Cl)c3)nc(N[C@H]3CCCC[C@H]3N)nc21
- EC50 ([1]; read-out: EC50): 12200 nM
- fold change (FC) [5]: > 3

Compound: CC(=O)Nc1cc(Cl)cc(Nc2nc(N[C@H]3CCCC[C@H]3N)nc3c2ncn3C(C)C)c1
- EC50 ([1]; read-out: EC50): 17500 nM

Compound: CC(=O)Nc1cc(Cl)cc(Nc2nc(N[C@@H]3CCCC[C@@H]3N)nc3c2ncn3C(C)C)c1 (racemic) [listing 1 of 2 here]
- IC50 [4]: 19 nM
- EC50 ([1]; read-out: EC50): 8100 nM
- IC50 (CDK4/Cyclin D3 [8]): 930 nM
- IC50 [9]: 13 nM
- IC50 [10]: 64 nM

Compound: CC(C)n1cnc2c(Nc3cc(N)cc(Cl)c3)nc(N[C@H]3CCCC[C@H]3N)nc21
- EC50 ([1]; read-out: EC50): 18700 nM

Compound: CC(C)n1ccc2c(Nc3cccc(Cl)c3)nc(N[C@H]3CCCC[C@H]3N)nc21 (racemic)
- IC50 [4]: > 1000 nM
- inhibition [5]: inactive

Compound: CC(=O)Oc1ccc(/C=C/c2cc(OC(C)=O)cc(OC(C)=O)c2)cc1
- Activity [5]: 17%

Compound: CC(C)n1cnc2c(Nc3cc(N)cc(Cl)c3)nc(N[C@@H]3CCCC[C@@H]3N)nc21 (racemic)
- IC50 (CDK6/cyclin D3 [6]): > 1000 nM
- IC50 [4]: 18 nM
- EC50 ([1]; read-out: EC50): 6500 nM
- IC50 (CDK4/Cyclin D3 [8]): > 1000 nM
- IC50 [9]: 16 nM
- IC50 [7]: 973 nM
- IC50 [11]: > 1000 nM
- IC50 [10]: 54 nM

Compound: O=C(O)COc1ccc(Cl)cc1Cl
- Activity [5]: 21%

Compound: CC(C)n1cnc2c(Nc3cc(N)cc(Cl)c3)nc(N[C@@H]3CCCC[C@H]3N)nc21
- EC50 ([1]; read-out: EC50): 9700 nM

Compound: CC(C)n1cnc2c(Nc3cccc(Cl)c3)nc(N[C@@H]3CCCC[C@H]3N)nc21
- EC50 ([1]; read-out: EC50): 4500 nM
- fold change (FC) [5]: > 3

Compound: CCn1cnc2c(Nc3cccc(Cl)c3)nc(N[C@H]3CCCC[C@@H]3N)nc21
- EC50 ([1]; read-out: EC50): 22000 nM
- fold change (FC) [5]: > 3

Compound: CC(C)n1cnc2c(Nc3cc(N)cc(Cl)c3)nc(N[C@@H]3CCCC[C@@H]3N)nc21
- IC50 (CDK6/cyclin D3 [12]): > 1000 nM
- EC50 ([1]; read-out: EC50): 3000 nM
- IC50 (CDK4/Cyclin D3 [13]): > 1000 nM
- IC50 [7]: 532 nM
- IC50 [11]: > 1000 nM

Compound: CC(=O)Nc1cc(Cl)cc(Nc2nc(N[C@@H]3CCCC[C@@H]3N)nc3c2ncn3C(C)C)c1 (racemic) [listing 2 of 2 here]
- fold change (FC) [5]: > 3

Compound: COc1ccc2c(C)nc(Nc3nc(C)c(C)c(O)n3)nc2c1
- inhibition [5]: inactive

Compound: CNC(=O)O[C@@H](C)/C=C\C(=O)N[C@H]1CC[C@@H](C/C=C(C)/C=C/[C@@H]2C[C@]3(CO3)CC(C)(C)O2)CC1
- EC50 ([1]; read-out: EC50): 800 nM

Compound: CCn1cnc2c(Nc3cccc(Cl)c3)nc(N[C@@H]3CCCC[C@@H]3N)nc21 (racemic)
- IC50 (CDK6/cyclin D3 [6]): > 1000 nM
- IC50 [4]: 148 nM
- EC50 ([1]; read-out: EC50): 4200 nM
- IC50 (CDK4/Cyclin D3 [8]): 573 nM
- IC50 [9]: 111 nM
- fold change (FC) [5]: > 3
- inhibition [2]: Active
- IC50 [7]: 382 nM
- IC50 [11]: > 1000 nM
- IC50 [10]: 104 nM

Compound: CC1=Nc2ccc(Cl)cc2S(=O)(=O)N1
- Activity [5]: 11%

Compound: C#CCCCCCCCCCCC(=O)CC(O)COC(C)=O (centres undefined)
- Activity [5]: 14%

Compound: CCN1/C(=C/C(C)=O)Sc2ccc(Cl)cc21
- inhibition [5]: inactive

Compound: CC(/C=C/[C@@H]1C[C@]2(CO2)CC(C)(C)O1)=C\C[C@H]1CC[C@@H](NC(=O)/C=C\[C@H](C)OC(=O)N(C)C)CC1
- inhibition [5]: Active

Compound: CCn1cnc2c(Nc3cccc(Cl)c3)nc(N[C@@H]3CCCC[C@H]3N)nc21
- EC50 ([1]; read-out: EC50): 7800 nM
- fold change (FC) [5]: > 3

Compound: COC(=O)c1c(/C(C#N)=C\N)c2ccc(Cl)c(Cl)c2n1C
- EC50 ([1]; read-out: EC50): 8000 nM
- inhibition [5]: Active

Compound: COc1ccc2c(C)nc(Nc3nc(C)c(C)c(=O)[nH]3)nc2c1
- EC50 [14]: 20000 nM
